The structures appear in SMILES notation. Converted amounts (≈) assume the structure as drawn. Like-named read-outs stand apart in the source and are kept apart here. Marks after values point to notes of the source that are not given here.

Data on eleven compounds can be found in article PMC5435703 (Scientific Reports, 2017).

Data set [1] relates to MRSA BAA-1707. Description: MIC assay with metal(II) cation co-treatment. To be noted: Staphylococcus aureus. The class given is cell-based, Staphylococcus aureus.
For a further data set, the system named is MRSA-2. Kind of data set: MIC broth microdilution assay. The conditions noted are these: Staphylococcus aureus, MRSA; Table 1; read-out: MIC MRSA-2. It is filed as cell-based, Staphylococcus aureus.
Data set [2] concerns MRSA BAA-1707. Description: MIC broth microdilution assay. It is filed as cell-based, Staphylococcus aureus.
For the next data set, the system named is MRSA-1. Description: MIC broth microdilution assay. It is filed as cell-based, Staphylococcus aureus. The conditions noted are these: Staphylococcus aureus, MRSA; Table 1; read-out: MIC MRSA-1.
Another data set relates to VRE 700221. Kind of data set: MIC broth microdilution assay. It is filed as cell-based, Enterococcus faecium.
Data set [3] deals with MRSE 35984. Kind of data set: MIC broth microdilution assay. It is filed as cell-based, Staphylococcus epidermidis. The conditions noted are these: for MIC: Staphylococcus epidermidis, MRSE.
In another data set the test system is S. epi 12228. Description: MIC broth microdilution assay. The class given is cell-based, Staphylococcus epidermidis. The conditions noted are these: Staphylococcus epidermidis, 12228; Table 1; read-out: MIC S. epi 12228.
In data set [4] the test system is MRSE 35984. Description: Calgary Biofilm Device (CBD) MBC/MBEC assay. The class given is cell-based, Staphylococcus epidermidis. To be noted: Staphylococcus epidermidis, MRSE; CBD, planktonic killing; read-out: MRSE 35984 MBC.
Another data set deals with MRSA BAA-44. Description: MIC broth microdilution assay. The class given is cell-based. The conditions noted are these: Staphylococcus aureus; Table 1; read-out: MIC MRSA BAA-44.
Data set [5] in a line: Hemolysis assay with red blood cells. The conditions noted are these: human, pH 7.2.
The subject of data set [6] is MRSA BAA-1707. Description: Calgary Biofilm Device (CBD) MBC/MBEC assay. It is filed as cell-based, Staphylococcus aureus. The conditions noted are these: Staphylococcus aureus, 24 h, CBD, planktonic killing, 24 hours treatment; read-out: MRSA BAA-1707 MBC.
Data set [7] can be described thus: LDH release assay for HeLa cytotoxicity. To be noted: human, HeLa cells; LDH release, 24 hours; tested at 25, 50 and 100 µM; read-out: HeLa Cytotox. IC50. The class given is cell-based.
[8] abbreviates: Table 2, MRSA BAA-1707, no metal(II) cation added, read-out: MIC.
Setting [9] is: copper(II) at 200 µM co-treatment, read-out: MIC w/Cu2+.
The mark [10] stands for this setting: iron(II) at 200 µM co-treatment, read-out: MIC w/Fe2+.
The mark [11] stands for this setting: magnesium(II) at 200 µM co-treatment, read-out: MIC w/Mg2+.
Setting [12] is: zinc(II) at 200 µM co-treatment, read-out: MIC w/Zn2+.
The mark [13] stands for this setting: Staphylococcus aureus, Table 1, three independent experiments, read-out: MIC MRSA BAA-1707.
Setting [14] is: Staphylococcus aureus, single plate shown as picture, read-out: MIC (µM), MIC Assay against MRSA BAA-1707.
The mark [15] stands for this setting: Enterococcus, VRE, Table 1, read-out: MIC VRE 700221.
Where [16] appears, read: Table 1, read-out: MIC MRSE 35984.

Regarding `Oc1cccc2nc3ccccc3nc12` [1-OHP, 1-hydroxyphenazine, reference compound], the MIC was 250 µM in the data set on MRSA BAA-1707 [1] (setting [8]); 75 µM with MRSA BAA-1707 [1] (setting [9]); 250 µM in the data set on MRSA BAA-1707 [1] (setting [10]); 250 µM in the data set with MRSA BAA-1707 [1] (setting [11]); more than 500 µM in the data set on MRSA BAA-1707 [1] (setting [12]).
Take `Oc1cccc2cccnc12` [8-OHQ, 8-hydroxyquinoline, reference compound]: the MIC with MRSA BAA-1707 [1] stood at 9.38 µM; with MRSA BAA-1707 [1] (read-out: MIC w/Cu2+), 4.69 µM; in the data set on MRSA BAA-1707 [1] (read-out: MIC w/Fe2+) it was 12.5 µM; with MRSA BAA-1707 [1] (read-out: MIC w/Mg2+), 6.25 µM; in the data set with MRSA BAA-1707 [1] (read-out: MIC w/Zn2+) it was 12.5 µM.
Turning to `C[C@H]1c2cccc(O)c2C(=O)C2=C(O)[C@]3(O)C(=O)C(C(N)=O)=C(O)[C@@H](N(C)C)[C@@H]3[C@@H](O)[C@@H]21` [Doxy., Doxycycline, reference compound], the MIC in the data set with MRSA BAA-1707 [1] (setting [8]) amounted to 0.78 µM; in the data set on MRSA BAA-1707 [1] (setting [9]) it was 0.78 µM; in the data set with MRSA BAA-1707 [1] (setting [10]), 3.13 µM; in the data set with MRSA BAA-1707 [1] (setting [11]) it was 0.78 µM; in the data set with MRSA BAA-1707 [1] (setting [12]), 0.39 µM.
`CCCCc1cc(Br)c(O)c2nc3ccccc3nc12` [HP 2]: the MIC in the data set on MRSA-2 came out at 3.13 µM (≈ 1.04 µg/mL); with MRSA BAA-1707 [2] (setting [13]), 0.78 µM (≈ 0.258 µg/mL); in the data set on MRSA BAA-1707 [2] (setting [14]), 0.78 µM (≈ 0.258 µg/mL); in the data set with MRSA-1 it was 0.78 µM (≈ 0.258 µg/mL); with VRE 700221 (setting [15]), 0.78 µM (≈ 0.258 µg/mL).
As for `Oc1c(Br)cc(Br)c2nc3ccc(Br)cc3nc12` [HP 3], the MIC in the data set on MRSA BAA-1707 [2] (setting [13]) was 0.2 µM (≈ 0.0866 µg/mL); in the data set on MRSE 35984 [3] (setting [16]), 3.13 µM (≈ 1.35 µg/mL); with S. epi 12228, 3.13 µM (≈ 1.35 µg/mL).
As for `Cc1cc(Br)c(O)c2nc3ccccc3nc12` [HP 4], the MIC was 3.13 µM (≈ 0.905 µg/mL) in the data set with MRSA-2; 50 µM (≈ 14.5 µg/mL) with MRSA BAA-44; 3.13 µM (≈ 0.905 µg/mL) in the data set with MRSA BAA-1707 [2] (setting [13]); 3.13 µM (≈ 0.905 µg/mL) in the data set with MRSA BAA-1707 [2] (Staphylococcus aureus, Table 3, read-out: MRSA BAA-1707 MIC); 3.13 µM (≈ 0.905 µg/mL) in the data set with MRSA BAA-1707 [2] (setting [14]); 50 µM (≈ 14.5 µg/mL) with MRSA-1. Besides, the MIC was 3.13 µM (≈ 0.905 µg/mL) in the data set with VRE 700221 (setting [15]); 3.13 µM (≈ 0.905 µg/mL) in the data set with VRE 700221 (Enterococcus, VRE, Table 3, read-out: VRE 700221 MIC); 3.13 µM (≈ 0.905 µg/mL) in the data set with S. epi 12228. Moreover, the MBC in the data set on MRSE 35984 [4] was 150 µM (≈ 43.4 µg/mL); in the data set on MRSA BAA-1707 [6] it was 46.9 µM (≈ 13.6 µg/mL). Further, the hemolysis at 1 h, 200 µM in data set [5] was not above 1%. Besides, the IC50 at 24 h in data set [7] was more than 100 µM.
Consider `Cc1cccc2nc3c(O)c(Br)cc(C)c3nc12` [HP 5], for which the MIC with MRSA BAA-1707 [2] (setting [13]) is 9.38 µM (≈ 2.84 µg/mL); with MRSA BAA-1707 [2] (setting [14]), 12.5 µM (≈ 3.79 µg/mL); in the data set on MRSA-1, 37.5 µM (≈ 11.4 µg/mL); in the data set with VRE 700221 (setting [15]) it was more than 100 µM.
On to `CCc1cccc2nc3c(O)c(Br)cc(C)c3nc12` [HP 6], for which the MIC with MRSA-1 is 0.78 µM (≈ 0.247 µg/mL); with MRSE 35984 [3] (setting [16]), 0.3 to 0.78 µM (≈ 0.0952 to 0.247 µg/mL); in the data set on VRE 700221 (setting [15]) it was 0.78 to 2.35 µM (≈ 0.247 to 0.745 µg/mL); in the data set on VRE 700221 (Table 1, read-out: MIC VRE 700221) it was 0.78 µM (≈ 0.247 µg/mL). The “MIC MRSE 35984” value in the data set with MRSE 35984 [3] (Table 1) is recorded as 0.30^a µM.
For `Cc1ccc2nc3c(O)c(Br)cc(C)c3nc2c1C` [HP 7], the MIC in the data set with MRSA-1 is 50 µM (≈ 15.9 µg/mL).
For the compound `Cc1cc(Br)c(O)c2nc3cc(C(C)(C)C)ccc3nc12` [HP 8], the MIC in the data set with MRSA BAA-1707 [2] (setting [13]) was more than 100 µM; with MRSA BAA-1707 [2] (Table 1, three independent experiments, read-out: MIC MRSA BAA-1707) it was more than 100 µM; in the data set on MRSA-1, more than 100 µM; in the data set on MRSE 35984 [3] (setting [16]), more than 100 µM; with MRSE 35984 [3] (single plate shown as picture, read-out: MIC (µM), MIC Assay Against MRSE 35984), more than 100 µM; with VRE 700221 (setting [15]), more than 100 µM.
Take `CCc1cc(Br)c2nc3c(C)cc(Br)c(O)c3nc2c1` [HP 10]: the MIC in the data set with MRSA-1 came out at 50 µM (≈ 19.8 µg/mL); in the data set with MRSE 35984 [3] (setting [16]) it was 37.5 µM (≈ 14.9 µg/mL); with VRE 700221 (setting [15]) it was 50 µM (≈ 19.8 µg/mL).
